Laboratory results: patent EP0896965A1, “Inhibitors of G-protein-beta, gamma subumit function” (BOEHRINGER MANNHEIM GMBH, priority 1997, dated 1999)
No end group written: not given here.

Key:
[1] = system: β-adrenergic receptor kinase; assay: Inhibition of rhodopsin phosphorylation by β-adrenergic receptor kinase in the presence of Gβγ; type: biochemical; conditions: peptide at 100 µM; 1 µM rhodopsin, 2.5 nM βARK-1, 20 nM Gβγ
Procedure: (§1) • Figure 1 Inhibition of GTPase activity of Go by His6-tagged phosducin and its N-terminally truncated variants. […] The size of the short form of PhLP is indicated by the line on the top. Analysis with nonlinear curve fitting gave the following IC50-values: phosducin 15±1 nM, phosducin(64-246) 33±3 nM, phosducin( 138-246) 25±2 nM, phosducin(172-246) 95±13 nM, phosducin(204-246) 240±20 nM. Data are mean ± SEM of 3 independent experiments • Figure 2 Direct binding of His6-tagged phosducin and phosducin(204-246) to Gβγ. […] After washing, the Gβγ retained in the pellet was detected by SDS-polyacrylamide gel electrophoresis and Western blotting with antibodies directed against Gβ. • Figure 3 Inhibition of G0GTPase activity by synthetic peptides (top) derived from the C-terminus of phosducin. […] The activity of βARK was determined using rhodopsin in rod outer segments the substrate as in Schroeder and Lohse 1996. […] Phospholipase C-β2 activity was determined with a truncated version of PLC-β2 (PLC-mut) as described by Dietrich et al. (1994). […] Activity is expressed as pmoles of inositol 1.4.5-triphosphate formed per minute. • Figure 5 Amide region of a 500 MHz WATERGATED NOESY spectrum of the peptide phosducin(204-231) in 10 mM Phosphate buffer containing 100 mM NaCI and 10% D2O at pH = 6.5 and 277 K. The mixing time used was 250 ms. […]

phospholipase C-β2 = assay: Inhibition of Gβγ-stimulated phospholipase C-β2 activity; type: biochemical; conditions: peptide at 100 µM; Gβγ 600 nM
Procedure: as §1

GDVESFLNEYGLLPEKEM [phosducin(215-232)]
antagonism of the stimulatory effects of Gβγ on the activity of the β-adrenergic receptor kinase [1]: antagonized | antagonism of the stimulatory effects of Gβγ on the activity of phospholipase Cβ2 (phospholipase C-β2): antagonized
